Literature values, collected in patent US20230226121A1, “Honey Foam” (priority 2022, published 2023).

Tests used:
[1] = tested on: Escherichia Coli ATCC 25922
[2] = tested on: Staphylococcus aureus ATCC 29213

Q: Which MIC [1] does the source give for `CCN(CC)CC(=O)Nc1c(C)cccc1C` [lidocaine] here?
A: The MIC was 5 Mg/ml.

Q: What about the MIC [2] of the same compound?
A: Its MIC is 20 Mg/ml.
